Experimental data from US20060142356A1, “Novel therapeutic method and compositions for topical administration” (priority 2003, published 2006).
Like-named read-outs stand apart in the source and are kept apart here.

How the values were obtained:
[1] = Peak plasma concentration after oral dosing of farglitazar; assay type: in vivo, human
From the text: Z is expressed in units of ng/ml and is the target local free (i.e. unbound) concentration that is expected to have a therapeutic effect against the skin condition. In the case of PPAR gamma agonists, Z should correspond to the peak plasma free drug concentration generated by dosing these drugs orally to treat effectively Type II diabetes mellitus. The appropriate value of Z may be determined experimentally in vivo by conventional known means using standard protocols.
The value Z for farglitazar is 0.31 ng/ml [Peak plasma concentration for a 5 mg dose is about 157 ng/ml; 0.31 is 157*(100-99.8)/100].

Plasma bound fraction = assay type: in vitro ADME
From the text: PBF is the plasma bound fraction. Plasma bound fraction may be determined experimentally in vitro by conventional known means using standard tests (preferably a method employing equilibrium dialysis).

[2] = Rate of clearance of the drug substance (total systemic clearance); assay type: in vivo; details: human, plasma; in adults
From the text: C is expressed in units of ml/hr and is the rate of clearance of the drug substance. Clearance may be determined experimentally in vivo by conventional known means using standard tests. For example it can be determined from the plasma concentration in response to a defined input of drug using the equation given below: Clearance (ml/hr)=Input rate (ng/hr)/Total plasma concentration (ng/ml)

[3] = tested on: fasting plasma glucose in patients with type II diabetes; details: cited from earlier work

| Peak plasma concentration ([1]; 5 mg dose, total drug) | Z, target local free (unbound) concentration = peak plasma free drug concentration ([1]; 157*(100-99.8)/100, 5 mg dose) [ng/mL] | Plasma bound fraction (Plasma bound fraction) [%] | clearance [2] [mL/min] | SMILES | Time to achieve a reduction of fasting plasma glucose by 2 mmol/l ([3]; 2 mg b.i.d. dosage regimen) | Time to achieve a reduction of fasting plasma glucose by 2 mmol/l ([3]; 4 mg b.i.d. dosage regimen) |
| --- | --- | --- | --- | --- | --- | --- |
| about 157 ng/ml | 0.31 | 99.8 | 250 | Cc1oc(-c2ccccc2)nc1CCOc1ccc(C[C@H](Nc2ccccc2C(=O)c2ccccc2)C(=O)O)cc1 [farglitazar, N-(2-benzoylphenyl)-O-[2-(5-methyl-2-phenyl-4-oxazolyl)ethyl]-L-tyrosine] | – | – |
| – | – | – | – | CN(CCOc1ccc(CC2SC(=O)NC2=O)cc1)c1ccccn1 (stereo not drawn) [rosiglitazone, 5-[4-[2-(N-methyl-N-(2-pyridyl)amino)ethoxy]benzyl]thiazolidine-2,4-dione] | about 8 weeks | about 4 weeks |
